In US10513529B2, “1,2,4-triazolo-[3,4-b]-1,3,4-thiadiazole derivatives” (GALENICA S.A., priority 2016, dated 2019):
pIC50: −log10 of the molar value.

Columns and labels:
[1] = tested on: SKOV-3 human ovarian cancer cell line; experiment: MTT cytostatic-cytotoxic activity, SKOV-3; type: cell-based; conditions: SKOV-3, 48 h treatment
Protocol: (§1) SKOV-3 (SKOV-3) (ATCC HTB 77) and OVCAR-3 (ATCC® HTB-161™)
(§2) Human ovarian adenocarcinoma cells, which are grown easily in monolayer culture with epithelial-like morphology. SKOV-3 are resistant to tumor necrosis factor (TNF) and to other cytotoxic drugs such as cisplatin, and adriamycin, while OVCAR-3 are resistant to adriamycin, cisplatin and melphalan. These cell lines express androgens, estrogens and progesterone receptors. When SKOV-3 or OVCAR-3 cells are subcutaneously implanted in nude mice, SCID mice, a moderately differentiated tumor develops, and the resulting model resembles primary ovarian adenocarcinoma in humans.
(§3) All cancer cell lines are stored in a liquid nitrogen tank in 2.5 ml cryovials (Corning-Costar, Cambridge, Mass.). DMSO (dimethylsulfoxide) act as a cryoprotectant and is added to prevent the formation of ice crystals which may lyse the cells. The Cells were grown as monolayer cultures in T-75 flasks (Corning-Costar, Cambridge, Mass.) and maintained at 37° C. in 5% CO2 incubator & 100% relative humidity. The cultures medium used are McCoy's 5a Medium, supplemented with 10% fetal bovine serum (FBS, Gibco) and 1% antibiotics (100 IU/ml penicillin/100 µg/ml streptomycin), sterilized by filtration (Corning-Costar filter, diameter 0.2 μm, RPMI-1640 and 50% RPMI-1640 (Catalog No 30-2001) plus 50% Mammary Epithelial Growth Medium (MEGM), supplemented with 10% fetal bovine serum (FBS, Gibco) and 1% antibiotics (100 IU/ml penicillin/100 μg/ml streptomycin). The passage is performed every 3-4 to days as follows: Cells are washed with sterile PBS (Phosphate buffered saline): 8 g/l NaCl, 0,2 g/l KCl, 1,15 g/l Na2HPO4καl 0,2 g/l KH2PO4. pH:7,4), add 2-3 ml 0.05% trypsin (Gibco 1:250) and 0.02% EDTA to cover the monolayer and incubate the flask at 3TC for 5-10 minutes. Trypsin-EDTA, is used mainly to detach the cells from the flask and prepare a single cell suspension. Finally, the number of cells can be determined by direct counting using a Neubauer chamber and cell viability is determined by staining the cells with trypan blue.
(§4) In the experimental study the in vitro effect of the compound type (I) was evaluated against ovarian cancer cell lines UWB1.289, UWB1.289+BRCA1 Kai SKOV-3.The cells were plated in 96-well plate (MTP) at a density of 1×10^4cells/m1 per well and maintained for 72 h at 3TC in a 5% CO2 incubator and grown as monolayers. The selection of the initial number of cells was made according to the rate of proliferation of the cell line, in order the cells throughout the experiment are in an exponential (log) growth phase. After 24 hours, cells were treated with 1-100 μmol/l of the tested compounds for 48 h. Experiments were carried out using triplicate wells. The viability of cultured cells was estimated by an (3-(4,5-imethylthiazol-2-yl)-2,5-diphenyltetrazolium bromide (MTT) metabolic assay as described previously (Finlay G J, Wilson W R and Baguley B C: Comparison of in vitro activity of cytotoxic drugs towards human carcinoma and leukaemia cell lines. Eur J Cancer Clin Oncol 22: 655-662, 1986; Alley M C, Scudiero D A, Monks A, Hursey M L, Czerwinski M J, Fine D L, et al. Feasibility of drug screening with panels of human tumor cell lines using a microculture tetrazolium assay. Cancer Res 1988; 48:589-601). MTT (Sigma, St Louis, Mo., USA) was dissolved in PBS in a concentration of 5 mg/ml, filter sterilized, and stored at 4° C. MTT (50 μl of stock solution) was added to each culture and incubated for 3 h at 3TC to allow metabolization. Formazan crystals were solubilized by DMSO (100 μl). Absorbance of the converted dye was measured at a wavelength of 540nm on ELISA reader (BioTek, Winooski, Vt., USA).
(§5) GI50: The mean concentration that causes 50% inhibition of cell growth (Growth Inhibition 50%). The calculation of the value is based on the formula: (Tt72x)−(Ct24)/(Ct72)-(Ct24)×100=50
(§6) TGI: The mean concentration that causes 100% inhibition of cell growth (Total Growth Inhibition). […]

[2] = tested on: OVCAR-3 human ovarian cancer cell line; experiment: MTT cytostatic-cytotoxic activity, OVCAR-3; type: cell-based; conditions: OVCAR-3, 48 h treatment
Protocol: as §1, §2, §3, §4, §5, §6

[3] = tested on: UWB1.289 + BRCA1 human ovarian cancer cell line; experiment: MTT cytostatic-cytotoxic activity, UWB1.289+BRCA1; type: cell-based; conditions: UWB1.289+BRCA1, 48 h treatment
Protocol: Human ovarian adenocarcinoma cells, derived from UBWB1,289, in which the presence of the BRCA1 gene has been restored. […] They are not susceptible to ionizing radiation and radioimmune chemical agents (e.g., alkylating agents). Also, UWB1.289 cells have mutated the p53 tumor suppressor gene, and are positive for the expression of cytokeratin 7 (CK-7), calretinin and Wilms' tumor protein (WT).
as §3, §4, §5
(§7) TGI: The mean concentration that causes 100% inhibition of cell growth (Total Growth Inhibition). The value is calculated according to the formula: (Tt72x)−(Ct24)/(Ct72)−(Ct24)×100=0
(§8) IC50: The mean concentration that kills 50% of the cells (Inhibition Concentration 50%). The value is calculated according to the formula: (Tt72x)−(Ct24)/(Ct24)×100=[…]

[4] = tested on: MOLT-4 human acute T-leukemia cell line; experiment: MTT cytostatic-cytotoxic activity, MOLT-4; type: cell-based; conditions: MOLT-4, 48 h treatment
[5] = tested on: PC-3 human hormone-resistant prostate cancer cell line; experiment: MTT cytostatic-cytotoxic activity, PC-3; type: cell-based; conditions: PC-3, 48 h treatment
[6] = tested on: T-47D human breast cancer cell line; experiment: MTT cytostatic-cytotoxic activity, T-47D; type: cell-based; conditions: 48 h treatment
[7] = tested on: A-549 human lung carcinoma cell line; experiment: MTT cytostatic-cytotoxic activity, A-549; type: cell-based; conditions: A-549, 48 h treatment
[8] = tested on: UWB1.289 human ovarian cancer cell line (mutant BRCA1); experiment: MTT cytostatic-cytotoxic activity, UWB1.289; type: cell-based; conditions: UWB1.289, 48 h treatment
Protocol: Also, UWB1.289 cells have mutated the p53 tumor suppressor gene and positive Wilms' tumor protein (WT) expression, have no functional BRCA1 gene and are positive for the expression of cytokeratin 7 (CK-7), calretinin and Wilms' tumor protein (WT). Finally they are sensitive to ionizing radiation.
as §3, §4, §5, §7, §8

[9] = tested on: MCF-7 human breast cancer cell line; experiment: MTT cytostatic-cytotoxic activity, MCF-7; type: cell-based; conditions: MCF-7, 48 h treatment
in vivo = conditions: both sexes, mouse, in vivo, ip; C57BI/6 mice, acute toxicity
Protocol: The acute toxicity of the compounds was assessed from lethality by testing different concentrations, starting at 100mg/kg. […] For intraperitoneal (i.p.) treatment, stock solutions of the tested compounds were prepared immediately before use. They were suspended in corn oil in the desired concentration following initial dissolution in 10% dimethylsulfoxide (DMSO). C57BI/6 male and female were used for toxicity studies. Mice were kept under conditions of constant temperature and humidity in sterile cages with water and food.

[10] = tested on: all 9 human cancer cell lines; experiment: MTT cytostatic-cytotoxic activity, all 9 human cancer cell lines; type: cell-based; conditions: for pIC50: Homo sapiens, read-out: (cytotoxic); for GI50: in all 9 human cancer cell lines, read-out: IG50 (cytostatic)

COc1cc(Cc2nnc3sc(/C=C/c4cccc(F)c4)nn23)c(S(=O)(=O)N(C)C)cc1OC [TS29, 3-[2-(N,N-dimethylsulfamoyl)-4,5dimethoxybenzyl]-6-(E)-3-fluorostyryl-1,2,4-triazolo[3,4-b]-1,3,4-thiazole]
GI50 [1]: 45 µM
TGI [1]: 84 µM
pIC50 ([1]; kills 50% of the cells): < 4.00
GI50 [2]: 74 µM
TGI [2]: >100 µM
pIC50 ([2]; kills 50% of the cells): < 4.00
GI50 [3]: 10 µM
TGI [3]: 64 µM
pIC50 ([3]; kills 50% of the cells): < 4.00
GI50 [4]: 61 µM
TGI [4]: >100 µM
pIC50 ([4]; kills 50% of the cells): < 4.00
GI50 [5]: 85 µM
TGI [5]: >100 µM
pIC50 ([5]; kills 50% of the cells): < 4.00
GI50 [6]: 48 µM
TGI [6]: 86 µM
pIC50 ([6]; kills 50% of the cells): < 4.00
GI50 [7]: 30 µM
TGI [7]: 71 µM
pIC50 ([7]; kills 50% of the cells): < 4.00
GI50 [8]: 10 µM
TGI [8]: 67 µM
pIC50 ([8]; kills 50% of the cells): < 4.00
GI50 [9]: 66 µM
TGI [9]: >100 µM
pIC50 ([9]; kills 50% of the cells): < 4.00

COc1ccc(Cc2nn3c(Cc4cc(OC)c(OC)cc4S(=O)(=O)N(C)C)nnc3s2)cc1OC [TS51, 3-[2-(N,N-dimethylsulfamoyl)-4,5-dimethoxybenzyl]-6-(3,4-dimethoxybenzyl)-1,2,4-triazolo[3,4-b]-1,3,4-thiazole]
LD50 (in vivo): > 500 mg/kg
pIC50 [10]: < 4.00
GI50 [10]: < 100 µM

COc1cc(Cc2nnc3sc(CCCc4ccccc4)nn23)c(S(=O)(=O)N(C)C)cc1OC [TS52, 3-[2-(N,N-dimethylsulfamoyl)-4,5-dimethoxybenzyl]-6-(3-phenylpropyl)-1,2,4-triazolo[3,4-b]-1,3,4-thiazole]
LD50 (in vivo): > 500 mg/kg
pIC50 [10]: < 4.00
GI50 [10]: < 100 µM

COc1ccccc1CCc1nn2c(Cc3cc(OC)c(OC)cc3S(=O)(=O)N(C)C)nnc2s1 [TS54, 3-[2-(N,N-dimethylsulfamoyl)-4,5-dimethoxybenzyl]-6-[2-(2-methoxyphenyl)ethyl]-1,2,4-triazolo[3,4-b]-1,3,4-thiazole]
LD50 (in vivo): > 500 mg/kg
pIC50 [10]: < 4.00
GI50 [10]: < 100 µM

COc1ccc(CCc2nn3c(Cc4cc(OC)c(OC)cc4S(=O)(=O)N(C)C)nnc3s2)cc1 [TS55, 3-[2-(N,N-dimethylsulfamoyl)-4,5-dimethoxybenzyl]-6-[2-(4-methoxyphenyl)ethyl]-1,2,4-triazolo[3,4-b]-1,3,4-thiazole]
LD50 (in vivo): > 500 mg/kg
pIC50 [10]: < 4.00
GI50 [10]: < 100 µM

COc1cc(Cc2nnc3sc(COc4ccccc4)nn23)c(S(=O)(=O)N(C)C)cc1OC [TS56, 3-[2-(N,N-dimethylsulfamoyl)-4,5-dimethoxybenzyl]-6-phenoxymethyl-1,2,4-triazolo[3,4-b]-1,3,4-thiazole]
LD50 (in vivo): > 500 mg/kg
pIC50 [10]: < 4.00
GI50 [10]: < 100 µM

COc1cccc(Cc2nn3c(Cc4cc(OC)c(OC)cc4S(=O)(=O)N(C)C)nnc3s2)c1 [TS58, 3-[2-(N,N-dimethylsulfamoyl)-4,5-dimethoxybenzyl]-6-(3-methoxybenzyl)-1,2,4-triazolo[3,4-b]-1,3,4-thiazole]
LD50 (in vivo): > 500 mg/kg
pIC50 [10]: < 4.00
GI50 [10]: < 100 µM

COc1cc(Cc2nnc3sc(-c4cc(OC)c(OC)c(OC)c4)nn23)c(S(=O)(=O)N(C)C)cc1OC [TS59, 3-[2-(N,N-dimethylsulfamoyl)-4,5-dimethoxybenzyl]-6-(3,4,5-trimethoxyphenyl)-1,2,4-triazolo[3,4-b]-1,3,4-thiazole]
LD50 (in vivo): > 500 mg/kg
pIC50 [10]: < 4.00
GI50 [10]: < 100 µM

COc1cc(Cc2nnc3sc(-c4ccc([N+](=O)[O-])cc4Cl)nn23)c(S(=O)(=O)N(C)C)cc1OC [TS61, 3-[2-(N,N-dimethylsulfamoyl)-4,5-dimethoxybenzyl]-6-(2-chloro-4-nitrophenyl)-1,2,4-triazolo[3,4-b]-1,3,4-thiazole]
LD50 (in vivo): > 500 mg/kg
pIC50 [10]: < 4.00
GI50 [10]: < 100 µM

COc1cc(Cc2nnc3sc(-c4cccc(N)c4)nn23)c(S(=O)(=O)N(C)C)cc1OC [TS70, 3-[2-(N,N-dimethylsulfamoyl)-4,5-dimethoxybenzyl]-6-(3-aminophenyl)-1,2,4-triazolo[3,4-b]-1,3,4-thiazole]
LD50 (in vivo): > 500 mg/kg
pIC50 [10]: < 4.00
GI50 [10]: < 100 µM
